Reference: US20120196899A1, “METHODS AND PRODUCTS FOR TREATING INFLAMMATION” (Rock Creek Pharmaceuticals, Inc., priority 2010, published 2012)
Several values for one entry are separate records, joined by “and”; a condition that tells them apart may be missing. Equal values may be shown once. Read-outs that look alike come from different tables or passages of the source.

Tests used:
[1] = Concentration in brain extracts after single i.v. bolus; type: in vivo, Sprague-Dawley rats; conditions: for concentration at 0.5 h / concentration at 24 h / concentration at 6 h: Sprague-Dawley, rat, brain, intravenous
Experimental: Six rats (3 males and 3 females) were dosed per dose group. […] Plasma and brain homogenates were stored at −80° C. until analysis.
An additional 48 rats (24 males and 24 females) received a single intravenous dose via the tail vein at the same doses as mentioned above. At 30 and 360 minutes post administration, 6 rats (3 males and 3 females) per dose group, per time point were euthanized, bled via cardiac puncture, and perfused, and brains were collected. The brains were homogenized. Blood was spun, and plasma was collected. Plasma and brain homogenate were stored at −80° C.
The animals were weighed prior to dosing and received a single i.v. dose of either test compound at a volume of 5 mL/kg. Blood was collected via the venus plexus (retro-orbital) into tubes containing (K2) EDTA. No more than 0.5 mL was collected per time point. […] The brain was removed, weighed, homogenized in sterile 0.9% saline at a volume equal to its weight, and stored at −80° C.
Sample preparation. […] The amount of the test agent in the supernatant was determined by liquid chromatography tandem mass spectrometry (LC/MS/MS).
Analysis. Samples were analyzed by LC/MS/MS using an Agilent 6410 mass spectrometer coupled with an Agilent 1200 high pressure liquid chromatography (HPLC) and a CTC PAL chilled autosampler, all controlled by MassHunter software (Agilent). After separation on a hydrophilic interaction liquid chromatography (HILIC) HPLC column (Sepax) using an acetonitrile-ammonium acetate/acetic acid gradient system, peaks were analyzed by mass spectrometry (MS) using ESI ionization in multiple reaction monitoring (MRM) mode. MassHunter software was used to calculate the concentration of the test compounds in samples from the peak area using the appropriate calibration curves.
Calibration samples. Calibration curves were determined for both rat plasma and brain homogenate. Calibration samples were prepared by diluting a 50× stock solution of the test compound in PBS with blank matrix to the appropriate concentration and these samples were prepared as described above in the sample preparation.

[2] = Case: treatment of patient with autism and seizure disorder; type: in vivo, human patient; conditions: 1.0 mg three times per day
Source text: A patient, who was diagnosed with autism and a seizure disorder, had brain surgery and began rehabilitation the following month.

[3] = system: Experimental Autoimmune Thyroiditis; experiment: Experimental Autoimmune Thyroiditis (Example 16A): lymphoid typing by flow cytometry; type: in vivo, mice; conditions: p=0.0143
Experimental: Thyroiditis was induced by injection of thyroglobulin emulsified in complete Freund's adjuvant (CFA). On days 0 and 7, female mice received subcutaneous injection of 100 μg thyroglobulin (2 injections of 50 μg each). Control mice drank water. […] Mice were sacrificed on day 21.
Lymphoid typing. Cervical lymph nodes were removed for lymphoid typing by flow cytometry. Spleen and peritoneal macrophages were removed for ex vivo stimulation.

phosphorylated p65 = experiment: p65 phosphorylation in brain after intracranial TNFα; type: in vivo, Wild-type mice (B6/SJL); conditions: 2 mg/kg i.p., mouse brain, normalized to actin
Experimental: After 5 minutes, mice were intracranially injected with 0.5 mg of TNFα. Mice were euthanized ten minutes after the intracranial injection. The portion of the brain surrounding the intracranial site of injection was collected, and proteins were extracted. Phosphorylation of p65 was measured with an antibody towards phosphorylated p65.

## C1=CCC(c2cccnc2)NC1 (racemic) [Anatabine, 1,2,3,6-tetrahydro-[2,3′]bipyridinyl]
[1]; Anatabine 0.1 mg/kg, Rat Brain, 0.5 hr, individual rats
  Concentration of anatabine in rat brain extract: <LLQ and 21 ng/mL and 34 ng/mL and 25 ng/mL and 30 ng/mL
[1]; Anatabine 0.1 mg/kg, Rat Brain, 6 hr, individual rats
  Concentration of anatabine in rat brain extract: 3 ng/mL and <LLQ (2×) and 5 ng/mL and 4 ng/mL and 2 ng/mL
[1]; Anatabine 0.1 mg/kg, Rat Brain, 24 hr, individual rats
  Concentration of anatabine in rat brain extract: <LLQ (4×) and 2 ng/mL
[1]; Anatabine 0.75 mg/kg, Rat Brain, 0.5 hr, individual rats
  Concentration of anatabine in rat brain extract: 317 ng/mL and 393 ng/mL
[1]; Anatabine 0.75 mg/kg, Rat Brain, 6 hr, individual rats
  Concentration of anatabine in rat brain extract: 28 ng/mL and 19 ng/mL and 17 ng/mL and 27 ng/mL and 20 ng/mL
[1]; Anatabine 0.75 mg/kg, Rat Brain, 24 hr, individual rats
  Concentration of anatabine in rat brain extract: <LLQ
[1]; Anatabine 0.75 mg/kg, female, 24 hr
  Avg. Conc. rat brain: <LLQ
[1]; Anatabine 0.75 mg/kg, male and female, 24 hr
  Avg. Conc. rat brain, combined male and female: <LLQ
[1]; Anatabine 0.75 mg/kg, male, 24 hr
  Avg. Conc. rat brain: <LLQ
[1]; Anatabine 1.0 mg/kg, Rat Brain, 0.5 hr, individual rats
  Concentration of anatabine in rat brain extract: 338 ng/mL and 362 ng/mL and 393 ng/mL
[1]; Anatabine 1.0 mg/kg, Rat Brain, 6 hr, individual rats
  Concentration of anatabine in rat brain extract: 3 ng/mL and 4 ng/mL (2×) and 8 ng/mL (2×) and <LLQ
[1]; Anatabine 1.0 mg/kg, Rat Brain, 24 hr, individual rats
  Concentration of anatabine in rat brain extract: 2 ng/mL and <LLQ (4×)
[1]; Anatabine 1.0 mg/kg, female, 24 hr
  Avg. Conc. rat brain: <LLQ
[1]; 0.1 mg/kg, Concentration of anatabine in rat brain extract, Anatabine 0.1 mg/kg, Rat Brain, 0.5 hr, individual rats
  concentration at 0.5 h: 19 ng/mL
[1]; 0.1 mg/kg, Concentration of anatabine in rat brain extract, Anatabine 0.1 mg/kg, Rat Brain, 24 hr, individual rats
  concentration at 24 h: 3 ng/mL
[1]; 1 mg/kg, Concentration of anatabine in rat brain extract, Anatabine 1.0 mg/kg, Rat Brain, 24 hr, individual rats
  concentration at 24 h: 3 ng/mL
[1]; anatabine 0.75 mg/kg i.v., 24 hr, Female
  Mean concentration in rat brain extracts: <LLQ
[1]; anatabine 0.75 mg/kg i.v., 24 hr, Male
  Mean concentration in rat brain extracts: <LLQ
[1]; anatabine 1.0 mg/kg i.v., 24 hr, Female
  Mean concentration in rat brain extracts: <LLQ
[1]; both sexes, 0.1 mg/kg, Anatabine 0.1 mg/kg, male and female, 0.5 hr, read-out: Avg. Conc. rat brain, combined male and female
  concentration at 0.5 h: 25.8 ng/g
[1]; both sexes, 0.1 mg/kg, Anatabine 0.1 mg/kg, male and female, 6 hr, read-out: Avg. Conc. rat brain, combined male and female
  concentration at 6 h: 3.5 ng/g
[1]; both sexes, 0.1 mg/kg, Anatabine 0.1 mg/kg, male and female, 24 hr, read-out: Avg. Conc. rat brain, combined male and female
  concentration at 24 h: 2.5 ng/g
[1]; both sexes, 0.75 mg/kg, Anatabine 0.75 mg/kg, male and female, 0.5 hr, read-out: Avg. Conc. rat brain, combined male and female
  concentration at 0.5 h: 295 ng/g
[1]; both sexes, 0.75 mg/kg, Anatabine 0.75 mg/kg, male and female, 6 hr, read-out: Avg. Conc. rat brain, combined male and female
  concentration at 6 h: 21.2 ng/g
[1]; both sexes, 0.75 mg/kg, Concentration of anatabine in rat brain extract, Anatabine 0.75 mg/kg, Rat Brain, 6 hr, individual rats
  concentration at 6 h: 16 ng/mL
[1]; both sexes, 1 mg/kg, Anatabine 1.0 mg/kg, male and female, 0.5 hr, read-out: Avg. Conc. rat brain, combined male and female
  concentration at 0.5 h: 334 ng/g
[1]; both sexes, 1 mg/kg, Anatabine 1.0 mg/kg, male and female, 6 hr, read-out: Avg. Conc. rat brain, combined male and female
  concentration at 6 h: 5.4 ng/g
[1]; both sexes, 1 mg/kg, Anatabine 1.0 mg/kg, male and female, 24 hr, read-out: Avg. Conc. rat brain, combined male and female
  concentration at 24 h: 2.5 ng/g
[1]; both sexes, 1 mg/kg, Concentration of anatabine in rat brain extract, Anatabine 1.0 mg/kg, Rat Brain, 0.5 hr, individual rats
  concentration at 0.5 h: 349 ng/mL
[1]; female, 0.1 mg/kg, Anatabine 0.1 mg/kg, female, 0.5 hr, read-out: Avg. Conc. rat brain
  concentration at 0.5 h: 29.7 ng/g
[1]; female, 0.1 mg/kg, Anatabine 0.1 mg/kg, female, 6 hr, read-out: Avg. Conc. rat brain
  concentration at 6 h: 3.7 ng/g
[1]; female, 0.1 mg/kg, Anatabine 0.1 mg/kg, female, 24 hr, read-out: Avg. Conc. rat brain
  concentration at 24 h: 2 ng/g
[1]; female, 0.1 mg/kg, anatabine 0.1 mg/kg i.v., 0.5 hr, Female, read-out: Mean concentration in rat brain extracts
  concentration at 0.5 h: 29.7 ± 4.5 ng/g
[1]; female, 0.1 mg/kg, anatabine 0.1 mg/kg i.v., 6 hr, Female, read-out: Mean concentration in rat brain extracts
  concentration at 6 h: 3.7 ± 1.5 ng/g
[1]; female, 0.1 mg/kg, anatabine 0.1 mg/kg i.v., 24 hr, Female, read-out: Mean concentration in rat brain extracts
  concentration at 24 h: 2 ng/g
[1]; female, 0.75 mg/kg, Anatabine 0.75 mg/kg, female, 0.5 hr, read-out: Avg. Conc. rat brain
  concentration at 0.5 h: 315 ng/g
[1]; female, 0.75 mg/kg, Anatabine 0.75 mg/kg, female, 6 hr, read-out: Avg. Conc. rat brain
  concentration at 6 h: 21 ng/g
[1]; female, 0.75 mg/kg, anatabine 0.75 mg/kg i.v., 0.5 hr, Female, read-out: Mean concentration in rat brain extracts
  concentration at 0.5 h: 315 ± 67.9 ng/g
[1]; female, 0.75 mg/kg, anatabine 0.75 mg/kg i.v., 6 hr, Female, read-out: Mean concentration in rat brain extracts
  concentration at 6 h: 21 ± 6.2 ng/g
[1]; female, 1 mg/kg, Anatabine 1.0 mg/kg, female, 0.5 hr, read-out: Avg. Conc. rat brain
  concentration at 0.5 h: 346 ng/g
[1]; female, 1 mg/kg, Anatabine 1.0 mg/kg, female, 6 hr, read-out: Avg. Conc. rat brain
  concentration at 6 h: 6 ng/g
[1]; female, 1 mg/kg, anatabine 1.0 mg/kg i.v., 0.5 hr, Female, read-out: Mean concentration in rat brain extracts
  concentration at 0.5 h: 346 ± 56.7 ng/g
[1]; female, 1 mg/kg, anatabine 1.0 mg/kg i.v., 6 hr, Female, read-out: Mean concentration in rat brain extracts
  concentration at 6 h: 6 ± 2.8 ng/g
[1]; male, 0.1 mg/kg, Anatabine 0.1 mg/kg, male, 0.5 hr, read-out: Avg. Conc. rat brain
  concentration at 0.5 h: 20 ng/g
[1]; male, 0.1 mg/kg, Anatabine 0.1 mg/kg, male, 6 hr, read-out: Avg. Conc. rat brain
  concentration at 6 h: 3 ng/g
[1]; male, 0.1 mg/kg, Anatabine 0.1 mg/kg, male, 24 hr, read-out: Avg. Conc. rat brain
  concentration at 24 h: 3 ng/g
[1]; male, 0.1 mg/kg, anatabine 0.1 mg/kg i.v., 0.5 hr, Male, read-out: Mean concentration in rat brain extracts
  concentration at 0.5 h: 20 ± 1.4 ng/g
[1]; male, 0.1 mg/kg, anatabine 0.1 mg/kg i.v., 6 hr, Male, read-out: Mean concentration in rat brain extracts
  concentration at 6 h: 3 ng/g
[1]; male, 0.1 mg/kg, anatabine 0.1 mg/kg i.v., 24 hr, Male, read-out: Mean concentration in rat brain extracts
  concentration at 24 h: 3 ng/g
[1]; male, 0.75 mg/kg, Anatabine 0.75 mg/kg, male, 0.5 hr, read-out: Avg. Conc. rat brain
  concentration at 0.5 h: 276 ng/g
[1]; male, 0.75 mg/kg, Anatabine 0.75 mg/kg, male, 6 hr, read-out: Avg. Conc. rat brain
  concentration at 6 h: 21.3 ng/g
[1]; male, 0.75 mg/kg, anatabine 0.75 mg/kg i.v., 0.5 hr, Male, read-out: Mean concentration in rat brain extracts
  concentration at 0.5 h: 276 ± 37 ng/g
[1]; male, 1 mg/kg, Anatabine 1.0 mg/kg, male, 0.5 hr, read-out: Avg. Conc. rat brain
  concentration at 0.5 h: 323 ng/g
[1]; male, 1 mg/kg, Anatabine 1.0 mg/kg, male, 6 hr, read-out: Avg. Conc. rat brain
  concentration at 6 h: 5 ng/g
[1]; male, 1 mg/kg, Anatabine 1.0 mg/kg, male, 24 hr, read-out: Avg. Conc. rat brain
  concentration at 24 h: 2.5 ng/g
[1]; male, 1 mg/kg, anatabine 1.0 mg/kg i.v., 0.5 hr, Male, read-out: Mean concentration in rat brain extracts
  concentration at 0.5 h: 323 ± 35.9 ng/g
[1]; male, 1 mg/kg, anatabine 1.0 mg/kg i.v., 6 hr, Male, read-out: Mean concentration in rat brain extracts
  concentration at 6 h: 5 ± 2.6 ng/g
[1]; male, 1 mg/kg, anatabine 1.0 mg/kg i.v., 24 hr, Male, read-out: Mean concentration in rat brain extracts
  concentration at 24 h: 2.5 ± 0.7 ng/g
[1]; single i.v., rats
  appearance in brain tissue following i.v. administration: rapidly appear in brain tissue
[2]; from approximately one week
  cognitive benefits: improved communication and language skills and the ability to focus
[2]; over 3½ weeks, one patient
  frequency of seizures: decreased from one per day to approximately one per week
[3]; cervical lymph nodes
  activated T cells: fewer activated T cells
  regulatory T cells: more regulatory T cells
[3]
  ability to present antigens: a lower ability to present antigens
Phosphorylated p65
  p65 phosphorylation: reduced p65 phosphorylation in mouse brain
